Experimental data taken from patent US20090298857A1, “Treatment of Neurodegenerative Diseases Through Inhibition of HSP90” (SLOAN-KETTERING INSTITUTE FOR CANCER RESEARCH, priority 2006, published 2009).
“And” between values parts separate entries of the source, which are not always exact repeats. Identical values can stand only once.

Tests used:
[1] = ref. (2); cited from earlier work
[2] = tested on: mTau expression and phosphorylation, subcortical brain region; assay: 30 day Hsp90 inhibitor treatment of JNPL3 mice; type: in vivo; settings: 30 days
Method: To investigate whether modulation of mTau could be sustained over a longer Hsp90 inhibitor-treatment period, without being toxic to mice. JNPL3 mice were subjected for 30 days to these agents. Female JNPL3 mice 6.5 months of age (n=10) were administered i.p. vehicle (n=5) or one of the Hsp90 inhibitors, PU24FC1 (200 mg/kg) or PU-DZ8 (75 mg/kg) (n = 5), on a daily, five-times per week schedule and animals were sacrificed at 8 h following the last administered dose of inhibitor. […] Furthermore, no visible internal organ damage was detected at sacrifice upon gross inspection. Both S1 and P3 fractions extracted from the subcortical brain region of these mice were analyzed for mTau expression and phosphorylation.

[3] = tested on: p35 and tau phosphorylation in whole brains; assay: Five day PU-DZ8 treatment of nine-month old JNPL3 mice; type: in vivo
Excerpt: Transgenic mice: Transgenic mice, JNPL3 line (59) overexpressing mutant human tau (P301L, 4R0N) were used in this study. Mice were heterozygous and on a mixed hybrid genetic background composed of C57BL/DBA2/SW, as published in ref. 59. These mice develop NFTs in the basal telencephalon, diencephalon, brainstem, and spinal cord, with severe pathology accompanied by degeneration in the spinal cord leading to dystonia, paralysis, and death in mice >12 months in age. Nine month-old male JNPL3 mice (n=2) were treated intraperitoneally with PU-DZ8 or vehicle for 5 days. Mice were sacrificed 12 h after last treatment by cervical dislocation under anesthesia.
To further examine the effect of Hsp90 on tau phosphorylation, we used the JNPL3 line of mice expressing mutant (P301L) tau protein (59). Genetic analyses have linked mutations in the tau gene to FTDP-17 (60, 61). Over 20 distinct pathogenic mutations have been identified, with P301L as the most common mutation in tauophaties (33). […] The tau protein in JNPL3 is predominantly human and is phosphorylated at multiple sites: T181 (AT270). S202/T205 (AT8), T212 (AT100), T231 (AT180), S262, S396/S404, S409 and S422 (59, 62). […] The degree of p35 expression translated well into alleviation of phosphorylation. […] However, in mice where effects were more prominent and p35 expression declined to approximately 20% as compared to control, a significant effect on tau phosphorylation at S202/T205 and T212/S214 and a 50% reduction on T231 was observed. We could not detect a significant amount of tau phosphorylation at T181, site found to be hyperphosphorylated in PHF, tangles and neurofilaments (65). Again, whole brain expression of cdk5 was not affected (FIG. 3).

[4] = tested on: mutant tau (HT7), Hsp70, p35; assay: One dose PU-DZ8 in 6 month JNPL3 mice, S1 fraction Western blot (FIG. 9); type: in vivo; settings: one dose 75 mg/kg IP, subcortical S1
Method: JNPL3 female mice 6 months of age were treated IP with the Hsp90 inhibitor PU-DZ8 (75 mg/kg) and sacrificed various times as indicated in FIG. 9. Brains were divided in subcortical and cortical regions and processed using the Greenberg and Davies extraction protocol (77). Sarkosyl soluble fractions (S1) extracted from the subcortical region were analyzed by WB for p35, cdk5, mutant tau (HT7), Hsp90 and Hsp70. Protein bands were normalized to actin and plotted as relative change from untreated mice.

[5] = Assessment of PU-DZ8 brain levels by HPLC/MS/MS; type: in vivo, mice; settings: 75 mg/kg i.p.
Method: Assessment of PU-DZ8 brain levels. Concentrations of compound were determined and quantitated by a MRM mode using a tandem high-performance liquid chromatography-mass/mass spectrometry (HPLC/MS/MS). A weighed piece of brain was rinsed with saline isotonic solution, dried with gauze and then homogenized in mobile phase (acetonitrile (ACN)/0.1% formic acid=1.2/2.8, v/v). Haloperidol was added as internal standard. PU-DZ8 was extracted in methylene chloride, the organic layer was separated, speedily dried under vacuum and reconstituted in the mobile phase. Compound analysis was performed in the API 4000™ LC/MS/MS (Applied Biosystems) which was coupled with a Shimadzu LC system and a 96-well plate autosampler. A Gemini C18 column (5 μ particle size, 50×4.6 mm I.D.) was used for the LC separation. The analyte was eluted under an isocratic condition for 4 min at a flow rate of 0.4 mL/min.
One dose of PU-DZ8 (75 mg/kg) was administered intraperitoneally (i.p.) to female mice of 2.5-4 months in age (n=32) and animals were sacrificed in the interval of 0 to 36 h. Both aggregate-free Tau (S1) and insoluble Tau (P3) fractions were prepared from the subcortical and cortical regions of these mice. PU-DZ8 levels in the brain reached 0.35 μg/g (˜700 nM) at 4 h, and the pharmacologically relevant dose was retained for at least 12 h post-administration (0.2 μg/g, ˜390 nM).

P-glycoprotein = P-glycoprotein (Homo sapiens, UniProt P08183); assay: P-glycoprotein substrate status; type: in vitro ADME
P-glycoprotein, sequence (P08183 whole entry): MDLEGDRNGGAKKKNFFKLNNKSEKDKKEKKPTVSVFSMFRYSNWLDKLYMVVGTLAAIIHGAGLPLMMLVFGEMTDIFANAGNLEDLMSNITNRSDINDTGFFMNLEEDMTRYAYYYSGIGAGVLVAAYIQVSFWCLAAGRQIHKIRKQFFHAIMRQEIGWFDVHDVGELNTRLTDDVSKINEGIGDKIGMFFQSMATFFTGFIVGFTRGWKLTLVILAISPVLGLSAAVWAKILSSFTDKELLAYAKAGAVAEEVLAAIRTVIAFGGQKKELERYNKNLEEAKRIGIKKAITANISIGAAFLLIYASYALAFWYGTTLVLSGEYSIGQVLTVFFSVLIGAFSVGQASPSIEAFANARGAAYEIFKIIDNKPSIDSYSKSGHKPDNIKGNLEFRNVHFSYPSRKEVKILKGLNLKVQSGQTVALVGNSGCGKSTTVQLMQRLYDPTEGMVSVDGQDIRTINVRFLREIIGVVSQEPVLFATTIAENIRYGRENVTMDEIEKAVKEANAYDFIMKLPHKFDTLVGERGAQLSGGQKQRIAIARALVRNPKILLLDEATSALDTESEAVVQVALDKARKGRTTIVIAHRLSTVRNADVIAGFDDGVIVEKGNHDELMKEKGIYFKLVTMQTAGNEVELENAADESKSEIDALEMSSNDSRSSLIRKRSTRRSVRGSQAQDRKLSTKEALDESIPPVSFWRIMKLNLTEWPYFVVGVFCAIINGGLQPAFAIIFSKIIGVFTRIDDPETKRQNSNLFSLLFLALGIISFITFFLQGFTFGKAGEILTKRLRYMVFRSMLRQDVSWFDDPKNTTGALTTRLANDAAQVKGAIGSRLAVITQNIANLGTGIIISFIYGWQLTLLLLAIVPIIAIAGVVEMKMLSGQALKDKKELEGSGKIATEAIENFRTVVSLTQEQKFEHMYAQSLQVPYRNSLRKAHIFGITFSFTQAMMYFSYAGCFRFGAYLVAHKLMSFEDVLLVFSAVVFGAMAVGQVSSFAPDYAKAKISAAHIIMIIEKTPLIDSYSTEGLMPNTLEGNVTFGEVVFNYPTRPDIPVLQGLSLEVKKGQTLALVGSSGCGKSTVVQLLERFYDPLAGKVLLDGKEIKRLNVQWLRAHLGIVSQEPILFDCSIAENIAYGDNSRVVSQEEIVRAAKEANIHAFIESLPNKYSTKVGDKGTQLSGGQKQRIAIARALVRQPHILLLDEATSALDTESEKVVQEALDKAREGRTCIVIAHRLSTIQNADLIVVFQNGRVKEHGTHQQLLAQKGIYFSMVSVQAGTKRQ
Excerpt: Another characteristic which is indicative of the ability to cross the blood brain barrier is protein binding. […] It is not sufficient for a potential neurotherapeutic agent to move across the BBB—it also has to stay in the brain long enough to exert its desired action. This means that it also has to avoid being a substrate for a variety of transport proteins that work to extrude compounds from the brain.

[6] = tested on: p35 and Tau phosphorylation in cortical region; assay: One dose PU-DZ8 in hTau mice; type: in vivo; settings: 75 mg/kg i.p.
Method: The majority of Tau pathology in hTau mice is located in the cortical brain region. These mice express six isoforms of non-mutant human Tau, but develop AD-like Tau-pathology. Heat-stable fractions (S1) prepared from cortical homogenates of these mice indicate an age-related accumulation of Tau phosphorylated at putative cdk5 sites. […] Aggregate-free Tau (S1) fractions were prepared from the cortical region of these mice and human Tau levels assessed by immunobloting with an antibody specific for 3-repeat domain Tau (RD3). By analogy to experiments on primary neuronal cultures and WT Tau transfected cells, the Hsp90 inhibitor had no effect on soluble WT Tau expression. […] The monoclonal antibody CP13 is commonly used to detect Tau pathology in both early and more advanced stages of Tau aggregate accumulation (41).

**Q.** For `CC(C)NCCCn1c(Cc2cc3c(cc2I)OCO3)nc2c(N)nc(F)nc21` [PU-DZ8], which water solubility [1] is on record?
**A.** water soluble

**Q.** And the “p35 in S1 fraction” value [2]?
**A.** p35 reduction

**Q.** What about the “toxicity (animal weight, fur appearance, appetite, posture)” value ([2]; daily five-times per week i.p., PU24FC1 200 mg/kg, PU-DZ8 75 mg/kg) of the same compound?
**A.** No toxicity was observed

**Q.** And the “Tau expression and phosphorylation in S1 and P3 fractions” value ([2]; hTau P<0.0001, T231 P=0.0034 (FIG. 15))?
**A.** significant reduction

**Q.** And the “levels of compound in brain” value ([3]; 5 days i.p.)?
**A.** Pharmacologically relevant levels

**Q.** And the “whole brain expression of cdk5” value ([3]; 5 days i.p.)?
**A.** not affected

**Q.** And the “reduction in p35 levels” value ([3]; 5 days i.p., whole brain)?
**A.** 50%

**Q.** And the “effect on tau phosphorylation at S202/T205 (Ab AT-8)” value ([3]; at 50% reduction in p35 levels)?
**A.** approximately similar effect

**Q.** And the “reduction of phosphorylation on T212/S214 (Ab AT-100)” value ([3]; at 50% reduction in p35 levels)?
**A.** almost completely

**Q.** What about the “effect on tau phosphorylated at T231 (Ab AT-180)” value ([3]; at a reduction by 50% in p35 expression) of the same compound?
**A.** No significant effect

**Q.** What about the “p35 expression as compared to control” value ([3]; mice where effects were more prominent) of the same compound?
**A.** approximately 20%

**Q.** What about the “reduction of tau phosphorylation on T231” value ([3]; mice with p35 expression approximately 20% of control) of the same compound?
**A.** 50%

**Q.** And the “chaperone levels (hsp70)” value [4]?
**A.** hsp70 increase

**Q.** And the “mutant protein mtau (HT7)” value [4]?
**A.** degradation

**Q.** What about the “level in the brain” value ([5]; 4 h) of the same compound?
**A.** 0.35 μg/g and ~700 nM

**Q.** And the “level in the brain” value ([5]; 12 h post-administration)?
**A.** 0.2 μg/g and ~390 nM

**Q.** And the P-gp substrate (P-glycoprotein)?
**A.** not a substrate of P-pg

**Q.** And the p35 levels ([6]; 8 h post-administration, P=0.0019)?
**A.** significant time-dependent reduction

**Q.** And the “Tau phosphorylation on Ser202 (antibody CP13)” value ([6]; 8 h post-administration, P=0.0078)?
**A.** alleviation of Tau phosphorylation

**Q.** What about the “soluble WT Tau expression” value ([6]; hTau mice, cortical S1) of the same compound?
**A.** no effect
